In patent US20210070748A1, “INHIBITORS OF BRUTONS TYROSINE KINASE” (Pharmacyclics LLC, priority 2015, published 2021):

Experiments:
Type in all cases: biochemical
[1] = biological target: T1, JAK3 (Homo sapiens, UniProt P52333); assay: Inhibition of a panel of kinases, in vitro HotSpot kinase assay: JAK3; settings: for JAK3* IC50 relative to Btk IC50 value: fold relative to Btk IC50 value; for IC50: Table 15, C compounds, 1 μM ATP, read-out: IC50 JAK3
T1 sequence (P52333 1-1124): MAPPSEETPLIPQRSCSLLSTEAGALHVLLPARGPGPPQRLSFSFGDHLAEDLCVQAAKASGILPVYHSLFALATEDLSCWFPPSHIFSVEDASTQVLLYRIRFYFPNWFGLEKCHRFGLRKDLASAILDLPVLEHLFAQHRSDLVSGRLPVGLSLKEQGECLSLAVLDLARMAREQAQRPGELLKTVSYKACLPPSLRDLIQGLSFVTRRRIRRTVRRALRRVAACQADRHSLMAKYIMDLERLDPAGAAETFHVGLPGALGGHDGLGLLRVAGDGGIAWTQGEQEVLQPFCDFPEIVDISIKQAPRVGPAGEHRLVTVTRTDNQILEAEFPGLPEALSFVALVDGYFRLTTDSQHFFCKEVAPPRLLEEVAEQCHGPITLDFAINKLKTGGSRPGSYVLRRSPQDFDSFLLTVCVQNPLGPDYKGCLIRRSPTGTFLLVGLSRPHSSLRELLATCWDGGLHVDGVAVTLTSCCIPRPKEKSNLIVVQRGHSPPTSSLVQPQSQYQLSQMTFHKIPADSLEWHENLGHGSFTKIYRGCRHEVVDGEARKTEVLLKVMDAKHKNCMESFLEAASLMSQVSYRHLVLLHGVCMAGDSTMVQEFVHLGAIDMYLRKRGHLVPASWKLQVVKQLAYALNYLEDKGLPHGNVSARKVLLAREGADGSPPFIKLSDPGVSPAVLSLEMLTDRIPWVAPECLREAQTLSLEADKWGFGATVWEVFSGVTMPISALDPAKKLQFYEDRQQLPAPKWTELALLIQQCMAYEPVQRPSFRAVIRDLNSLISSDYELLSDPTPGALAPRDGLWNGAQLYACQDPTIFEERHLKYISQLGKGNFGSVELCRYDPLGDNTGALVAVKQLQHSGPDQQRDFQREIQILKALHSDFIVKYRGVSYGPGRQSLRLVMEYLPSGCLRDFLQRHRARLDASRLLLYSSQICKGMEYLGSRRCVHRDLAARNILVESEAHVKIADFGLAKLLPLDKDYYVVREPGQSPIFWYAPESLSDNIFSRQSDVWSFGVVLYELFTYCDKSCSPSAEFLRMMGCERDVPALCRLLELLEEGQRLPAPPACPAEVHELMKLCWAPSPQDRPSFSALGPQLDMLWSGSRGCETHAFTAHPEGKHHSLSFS

[2] = biological target: LCK (Homo sapiens, UniProt P06239); assay: Inhibition of a panel of kinases, in vitro HotSpot kinase assay: LCK; settings: for LCK* IC50 relative to Btk IC50 value: fold relative to Btk IC50 value; for IC50: Table 15, C compounds, 1 μM ATP, read-out: IC50 LCK
Chain of LCK (P06239 whole entry): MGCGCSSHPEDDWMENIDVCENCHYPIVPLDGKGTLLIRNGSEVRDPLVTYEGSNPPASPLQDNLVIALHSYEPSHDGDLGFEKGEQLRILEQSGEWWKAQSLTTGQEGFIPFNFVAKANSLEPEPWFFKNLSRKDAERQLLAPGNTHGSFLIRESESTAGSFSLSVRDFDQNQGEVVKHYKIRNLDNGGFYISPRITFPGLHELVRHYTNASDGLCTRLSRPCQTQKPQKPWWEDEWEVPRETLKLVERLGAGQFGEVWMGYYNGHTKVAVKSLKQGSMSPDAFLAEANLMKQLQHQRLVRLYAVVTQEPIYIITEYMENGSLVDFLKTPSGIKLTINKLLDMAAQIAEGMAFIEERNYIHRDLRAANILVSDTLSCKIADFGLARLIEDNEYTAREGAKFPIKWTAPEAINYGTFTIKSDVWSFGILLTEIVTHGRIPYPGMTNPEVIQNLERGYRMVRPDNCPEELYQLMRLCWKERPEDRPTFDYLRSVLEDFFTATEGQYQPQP

[3] = biological target: T2, ITK (Homo sapiens, UniProt Q08881); assay: Inhibition of a panel of kinases, in vitro HotSpot kinase assay: ITK; settings: for ITK* IC50 relative to Btk IC50 value: fold relative to Btk IC50 value; for IC50: Table 15, C compounds, 1 μM ATP
T2 sequence (Q08881 1-620): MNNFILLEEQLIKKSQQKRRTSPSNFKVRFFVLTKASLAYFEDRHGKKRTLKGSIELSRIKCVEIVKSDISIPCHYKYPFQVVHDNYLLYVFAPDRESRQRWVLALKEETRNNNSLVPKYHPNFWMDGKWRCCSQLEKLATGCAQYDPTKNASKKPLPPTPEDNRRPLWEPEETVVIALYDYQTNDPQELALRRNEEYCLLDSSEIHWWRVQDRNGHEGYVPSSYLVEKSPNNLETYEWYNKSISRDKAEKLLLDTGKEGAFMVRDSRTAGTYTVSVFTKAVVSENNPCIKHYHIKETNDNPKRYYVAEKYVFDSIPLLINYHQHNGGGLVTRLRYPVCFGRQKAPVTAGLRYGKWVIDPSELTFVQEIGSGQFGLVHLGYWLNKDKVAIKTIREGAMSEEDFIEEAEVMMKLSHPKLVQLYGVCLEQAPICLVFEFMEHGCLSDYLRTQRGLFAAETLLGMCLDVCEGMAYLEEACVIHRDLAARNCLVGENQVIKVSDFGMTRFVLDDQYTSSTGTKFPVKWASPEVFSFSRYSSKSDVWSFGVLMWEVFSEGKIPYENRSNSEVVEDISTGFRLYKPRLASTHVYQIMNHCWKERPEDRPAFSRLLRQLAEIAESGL
Method: (§1) The degree of inhibition of a panel of kinases is determined using the in vitro HotSpot kinase assay (purified enzymes, ^33P-ATP, an appropriate substrate and 1 μM ATP).

[4] = biological target: EGFR (Homo sapiens, UniProt P00533); assay: Inhibition of a panel of kinases, in vitro HotSpot kinase assay: EGFR; settings: for EGFR* IC50 relative to Btk IC50 value: fold relative to Btk IC50 value; for IC50: Table 15, C compounds, 1 μM ATP
Chain of EGFR (P00533 25-1210): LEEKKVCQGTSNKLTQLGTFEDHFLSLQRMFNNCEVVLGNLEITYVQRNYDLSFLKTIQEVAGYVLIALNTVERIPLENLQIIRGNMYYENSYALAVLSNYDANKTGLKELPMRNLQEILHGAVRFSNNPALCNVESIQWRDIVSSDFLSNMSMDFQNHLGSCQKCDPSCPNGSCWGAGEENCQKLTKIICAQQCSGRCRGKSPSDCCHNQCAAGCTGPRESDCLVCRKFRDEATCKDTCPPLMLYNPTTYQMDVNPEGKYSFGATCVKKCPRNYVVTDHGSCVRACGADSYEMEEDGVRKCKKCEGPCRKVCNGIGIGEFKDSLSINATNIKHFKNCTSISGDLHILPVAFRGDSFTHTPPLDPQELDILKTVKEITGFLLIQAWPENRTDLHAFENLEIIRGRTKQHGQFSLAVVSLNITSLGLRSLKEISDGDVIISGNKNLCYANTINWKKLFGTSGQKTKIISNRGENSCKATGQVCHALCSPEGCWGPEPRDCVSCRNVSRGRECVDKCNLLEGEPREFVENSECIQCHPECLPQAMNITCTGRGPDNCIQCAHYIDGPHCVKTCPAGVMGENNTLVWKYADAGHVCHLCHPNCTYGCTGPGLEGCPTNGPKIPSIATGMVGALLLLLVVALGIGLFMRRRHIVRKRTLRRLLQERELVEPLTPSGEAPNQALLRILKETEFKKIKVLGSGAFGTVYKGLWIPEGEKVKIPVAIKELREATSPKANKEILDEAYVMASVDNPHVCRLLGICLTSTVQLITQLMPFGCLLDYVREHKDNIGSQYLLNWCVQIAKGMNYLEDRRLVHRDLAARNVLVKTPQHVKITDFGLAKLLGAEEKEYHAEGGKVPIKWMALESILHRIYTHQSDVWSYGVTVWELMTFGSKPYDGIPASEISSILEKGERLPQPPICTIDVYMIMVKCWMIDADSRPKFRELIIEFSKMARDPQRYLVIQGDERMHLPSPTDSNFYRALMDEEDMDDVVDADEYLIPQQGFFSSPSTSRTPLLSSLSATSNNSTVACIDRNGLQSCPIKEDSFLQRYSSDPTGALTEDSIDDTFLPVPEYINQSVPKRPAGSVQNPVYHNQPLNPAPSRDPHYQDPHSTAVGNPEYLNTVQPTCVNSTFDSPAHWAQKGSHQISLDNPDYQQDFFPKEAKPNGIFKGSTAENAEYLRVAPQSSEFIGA
Method: as §1

[5] = biological target: SRC (Homo sapiens, UniProt P12931); assay: Inhibition of a panel of kinases, in vitro HotSpot kinase assay: SRC; settings: for SRC* IC50 relative to Btk IC50 value: fold relative to Btk IC50 value; for IC50: Table 15, C compounds, 1 μM ATP
Chain of SRC (P12931 whole entry): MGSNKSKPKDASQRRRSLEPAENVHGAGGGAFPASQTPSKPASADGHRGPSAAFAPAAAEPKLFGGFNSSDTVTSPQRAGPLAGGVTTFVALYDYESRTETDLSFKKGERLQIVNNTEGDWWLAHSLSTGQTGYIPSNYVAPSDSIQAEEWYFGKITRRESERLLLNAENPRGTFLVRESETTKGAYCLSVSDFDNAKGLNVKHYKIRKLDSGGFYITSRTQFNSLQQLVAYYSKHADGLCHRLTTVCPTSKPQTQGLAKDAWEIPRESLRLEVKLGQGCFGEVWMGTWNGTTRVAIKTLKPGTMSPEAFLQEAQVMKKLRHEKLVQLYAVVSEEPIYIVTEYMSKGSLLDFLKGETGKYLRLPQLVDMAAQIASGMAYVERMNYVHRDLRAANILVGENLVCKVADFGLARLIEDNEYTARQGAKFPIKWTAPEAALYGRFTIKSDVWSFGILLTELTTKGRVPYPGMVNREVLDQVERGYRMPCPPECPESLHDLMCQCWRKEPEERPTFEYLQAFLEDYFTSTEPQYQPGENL
Method: as §1

[6] = biological target: T3, TEC (Homo sapiens, UniProt P42680); assay: Inhibition of a panel of kinases, in vitro HotSpot kinase assay: TEC; settings: for TEC* IC50 relative to Btk IC50 value: fold relative to Btk IC50 value; for IC50: Table 15, C compounds, 1 μM ATP
T3 sequence (P42680 1-631): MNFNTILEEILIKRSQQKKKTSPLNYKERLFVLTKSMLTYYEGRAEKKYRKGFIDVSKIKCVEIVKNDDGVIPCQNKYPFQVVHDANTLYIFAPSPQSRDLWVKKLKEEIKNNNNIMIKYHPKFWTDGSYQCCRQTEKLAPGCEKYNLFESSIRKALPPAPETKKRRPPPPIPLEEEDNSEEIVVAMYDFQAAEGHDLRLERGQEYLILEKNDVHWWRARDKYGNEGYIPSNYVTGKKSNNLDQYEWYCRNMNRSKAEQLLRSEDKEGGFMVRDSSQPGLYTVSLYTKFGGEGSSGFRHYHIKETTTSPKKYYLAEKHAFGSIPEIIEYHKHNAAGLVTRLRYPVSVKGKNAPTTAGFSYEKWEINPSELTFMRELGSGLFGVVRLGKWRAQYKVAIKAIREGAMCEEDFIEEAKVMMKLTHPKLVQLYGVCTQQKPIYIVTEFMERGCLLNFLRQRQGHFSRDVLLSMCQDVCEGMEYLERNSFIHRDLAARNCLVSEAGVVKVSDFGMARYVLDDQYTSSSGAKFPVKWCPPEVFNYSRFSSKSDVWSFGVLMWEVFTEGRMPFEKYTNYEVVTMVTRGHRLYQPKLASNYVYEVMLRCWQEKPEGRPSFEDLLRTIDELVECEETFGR
Method: as §1

| JAK3* IC50 relative to Btk IC50 value [1] [x] | LCK* IC50 relative to Btk IC50 value [2] [x] | ITK* IC50 relative to Btk IC50 value [3] [x] | EGFR* IC50 relative to Btk IC50 value [4] [x] | SRC* IC50 relative to Btk IC50 value [5] [x] | TEC* IC50 relative to Btk IC50 value [6] [x] | IC50 [1] [nM] | IC50 [2] [nM] | IC50 [3] [nM] | IC50 [4] [nM] | IC50 [5] [nM] | IC50 [6] [nM] | Compound |
| --- | --- | --- | --- | --- | --- | --- | --- | --- | --- | --- | --- | --- |
| – | – | – | – | – | – | < 10 | 1000 to 10000 | ≤ 10 | ≤ 10 | 10 to 100 | ≤ 10 | C=CC(=O)N1CC[C@@H](N(C)c2nnc(C(N)=O)c(Nc3ccc(C(C)C)cc3)n2)C1 [Example C-41, (R)-3-((1-acryloylpyrrolidin-3-yl)(methyl)amino)-5-(4-isopropylphenylamino)-1,2,4-triazine-6-carboxamide] |
| – | – | – | – | – | – | < 10 | 10 to 100 | ≤ 10 | ≤ 10 | 10 to 100 | ≤ 10 | C=CC(=O)N1CCC[C@@H](Nc2nnc(C(N)=O)c(Nc3cc(C)ns3)n2)C1 [Example C-56, (R)-3-(1-acryloylpiperidin-3-ylamino)-5-(3-methylisothiazol-5-ylamino)-1,2,4-triazine-6-carboxamide] |
| – | – | – | – | – | – | < 10 | 10 to 100 | ≤ 10 | ≤ 10 | 10 to 100 | ≤ 10 | C=CC(=O)N1CCC[C@@H](Nc2nnc(C(N)=O)c(Nc3ccc(C4CCN(C(=O)CC)CC4)cc3)n2)C1 [Example C-57, (R)-3-(1-acryloylpiperidin-3-ylamino)-5-(4-(1-propionylpiperidin-4-yl)phenylamino)-1,2,4-triazine-6-carboxamide] |
| – | – | – | – | – | – | < 10 | 10 to 100 | ≤ 10 | ≤ 10 | 10 to 100 | ≤ 10 | C=CC(=O)N1CCC[C@@H](Nc2cnc(C(N)=O)c(Nc3ccc(C4CCN(C5CCCC5)CC4)cc3)n2)C1 [Example C-84, (R)-5-(1-acryloylpiperidin-3-ylamino)-3-(4-(1-cyclopentylpiperidin-4-yl)phenylamino)pyrazine-2-carboxamide] |
| – | – | – | – | – | – | < 10 | 100 to 1000 | ≤ 10 | 10 to 100 | 10 to 100 | ≤ 10 | C=CC(=O)N1CC[C@@H](N(C)c2cnc(C(N)=O)c(Nc3ccc(C4CCN(C5CCCC5)CC4)cc3)n2)C1 [Example C-85, (R)-5-((1-acryloylpyrrolidin-3-yl)(methyl)amino)-3-(4-(1-cyclopentylpiperidin-4-yl)phenylamino) pyrazine-2-carboxamide] |

The remaining lines, values behind:

| Compound | JAK3* IC50 relative to Btk IC50 value [1] [x] | LCK* IC50 relative to Btk IC50 value [2] [x] | ITK* IC50 relative to Btk IC50 value [3] [x] | EGFR* IC50 relative to Btk IC50 value [4] [x] | SRC* IC50 relative to Btk IC50 value [5] [x] | TEC* IC50 relative to Btk IC50 value [6] [x] | IC50 [1] [nM] | IC50 [2] [nM] | IC50 [3] [nM] | IC50 [4] [nM] | IC50 [5] [nM] | IC50 [6] [nM] |
| --- | --- | --- | --- | --- | --- | --- | --- | --- | --- | --- | --- | --- |
| Cn1cc(Nc2nc(N3CCC[C@@H](NC(=O)c4ccc(C5CC5)cc4)C3)nnc2C(N)=O)cn1 [Example A-202, 3-[(3R)-3-(4-cyclopropylbenzamido)piper-idin-1-yl]-5-[(1-methyl-1H-pyrazol-4-yl)amino]-1,2,4-triazine-6-carboxamide] | 631 | 107 | 360 | 5208 | 159 | 5 | – | – | – | – | – | – |
| C[C@@H]1[C@H](NC(=O)c2ccc(C(C)(C)C)cc2)CCCN1c1cnc(C(N)=O)c(Nc2cnn(C)c2)n1 [Example A-203, 5-((2R,3R)-3-(4-tert-butylbenzamido)-2-methylpiperidin-1-yl)-3-(1-methyl-1H-pyrazol-4-ylamino)pyrazine-2-carboxamide] | 7353 | 684 | 787 | 3304 | 98 | 8 | – | – | – | – | – | – |
| C[C@@H]1[C@H](NC(=O)c2ccc(C3CC3)cc2)CCCN1c1cnc(C(N)=O)c(Nc2cnn(C3CC3)c2)n1 [Example A-205, 3-[(1-cyclopropyl-1H-pyrazol-4-yl)amino]-5-[(2R,3R)-3-(4-cyclopropylbenzamido)-2-methylpiperidin-1-yl]pyrazine-2-carboxamide] | 4032 | 102 | 135 | 730 | 40 | 3 | – | – | – | – | – | – |
| C[C@@H]1[C@H](NC(=O)c2ccc(C3COC3)cc2)CCCN1c1cnc(C(N)=O)c(Nc2cnn(C)c2)n1 [Example A-206, 3-(1-methyl-1H-pyrazol-4-ylamino)-5-((2R,3R)-2-methyl-3-(4-(oxetan-3-yl)benzamido)piperidin-1-yl)pyrazine-2-carboxamide] | 341 | 63 | 157 | 896 | 33 | 1 | – | – | – | – | – | – |
| C=CC(=O)N1CCC[C@@H](N(C)c2cnc(C(N)=O)c(Nc3ccc(C4(C)CCN(C5CCCC5)CC4)cc3)n2)C1 [Example C-44, (R)-5-((1-acryloylpiperidin-3-yl)(methyl)amino)-3-(4-(1-cyclopentyl-4-methylpiperidin-4-yl)phenylamino) pyrazine-2-carboxamide] | – | – | – | – | – | – | < 10 | < 10 | ≤ 10 | ≤ 10 | ≤ 10 | ≤ 10 |
